Experiments:
[1] = target: Voltage-dependent L-type calcium channel subunit alpha-1C (DHP site) (Rattus norvegicus, UniProt P22002); assay: CA+/DHPSI/RA Eurofins-Panlabs selectivity data (BI); conditions: read-out: % Ctrl
[2] = target: Opioid receptor (Rattus norvegicus) (UniProt P33533+P34975+P33535); assay: OPIAT/NS Eurofins-Panlabs selectivity data (BI); format: protein assay; conditions: Compound concentration 10.0 uM
[3] = target: Amine oxidase [flavin-containing] A (MAO-A) (Homo sapiens, UniProt P21397); assay: MAOA Eurofins-Panlabs selectivity data (BI); design: mode of action inhibitor; conditions: compound concentration 10 uM, read-out: % Ctrl
[4] = target: 5-hydroxytryptamine receptor 1A (Homo sapiens) (UniProt P08908); conditions: Compound concentration 10.0 uM
[5] = target: D(2) dopamine receptor (Homo sapiens) (UniProt P14416); assay: D2L/H Eurofins-Panlabs selectivity data (BI); conditions: Compound concentration 10.0 uM
[6] = target: 5-hydroxytryptamine receptor 6 (Homo sapiens) (UniProt P50406); assay: 5HT6/HU Eurofins-Panlabs selectivity data (BI); conditions: Compound concentration 10.0 uM
[7] = target: Beta-3 adrenergic receptor (Homo sapiens) (UniProt P13945); conditions: Compound concentration 10.0 uM
[8] = target: Voltage-dependent L-type calcium channel subunit alpha-1C (phenylalkylamine site) (Rattus norvegicus, UniProt P22002); assay: CA+/PAASITE Eurofins-Panlabs selectivity data (BI); conditions: read-out: % Ctrl
[9] = target: Acetylcholine receptor subunit alpha (Homo sapiens) (UniProt P02708); assay: NACH/H Eurofins-Panlabs selectivity data (BI); conditions: Compound concentration 10.0 uM
[10] = target: Amine oxidase [flavin-containing] B (MAO-B) (Homo sapiens, UniProt P27338); assay: MAOB Eurofins-Panlabs selectivity data (BI); design: mode of action inhibitor; conditions: compound concentration 10 uM, read-out: % Ctrl
[11] = target: Sodium-dependent serotonin transporter (Homo sapiens) (UniProt P31645); assay: 5HTTRANS/HU Eurofins-Panlabs selectivity data (BI); conditions: Compound concentration 10.0 uM
[12] = target: Sodium/potassium-transporting ATPase subunit alpha-1 (Sus scrofa) (UniProt P05024); assay: ATP NA+/K+PI Eurofins-Panlabs selectivity data (BI); conditions: Compound concentration 10.0 uM
[13] = target: Sigma non-opioid intracellular receptor 1 (Homo sapiens) (UniProt Q99720); conditions: Compound concentration 10.0 uM
[14] = target: D(1B) dopamine receptor (Homo sapiens) (UniProt P21918); assay: D5/HU Eurofins-Panlabs selectivity data (BI); conditions: Compound concentration 10.0 uM
[15] = target: Sodium-dependent noradrenaline transporter (Homo sapiens) (UniProt P23975); conditions: Compound concentration 10.0 uM
[16] = target: Gamma-aminobutyric acid receptor subunit alpha-1 (Rattus norvegicus) (UniProt P62813); assay: GABAACENTR Eurofins-Panlabs selectivity data (BI); conditions: Compound concentration 10.0 uM
[17] = target: Alpha-1D adrenergic receptor (Homo sapiens) (UniProt P25100); conditions: Compound concentration 10.0 uM
[18] = target: Alpha-2A adrenergic receptor (Homo sapiens) (UniProt P08913); conditions: Compound concentration 10.0 uM

Chain of Voltage-dependent L-type calcium channel subunit alpha-1C (DHP site) (P22002 whole entry): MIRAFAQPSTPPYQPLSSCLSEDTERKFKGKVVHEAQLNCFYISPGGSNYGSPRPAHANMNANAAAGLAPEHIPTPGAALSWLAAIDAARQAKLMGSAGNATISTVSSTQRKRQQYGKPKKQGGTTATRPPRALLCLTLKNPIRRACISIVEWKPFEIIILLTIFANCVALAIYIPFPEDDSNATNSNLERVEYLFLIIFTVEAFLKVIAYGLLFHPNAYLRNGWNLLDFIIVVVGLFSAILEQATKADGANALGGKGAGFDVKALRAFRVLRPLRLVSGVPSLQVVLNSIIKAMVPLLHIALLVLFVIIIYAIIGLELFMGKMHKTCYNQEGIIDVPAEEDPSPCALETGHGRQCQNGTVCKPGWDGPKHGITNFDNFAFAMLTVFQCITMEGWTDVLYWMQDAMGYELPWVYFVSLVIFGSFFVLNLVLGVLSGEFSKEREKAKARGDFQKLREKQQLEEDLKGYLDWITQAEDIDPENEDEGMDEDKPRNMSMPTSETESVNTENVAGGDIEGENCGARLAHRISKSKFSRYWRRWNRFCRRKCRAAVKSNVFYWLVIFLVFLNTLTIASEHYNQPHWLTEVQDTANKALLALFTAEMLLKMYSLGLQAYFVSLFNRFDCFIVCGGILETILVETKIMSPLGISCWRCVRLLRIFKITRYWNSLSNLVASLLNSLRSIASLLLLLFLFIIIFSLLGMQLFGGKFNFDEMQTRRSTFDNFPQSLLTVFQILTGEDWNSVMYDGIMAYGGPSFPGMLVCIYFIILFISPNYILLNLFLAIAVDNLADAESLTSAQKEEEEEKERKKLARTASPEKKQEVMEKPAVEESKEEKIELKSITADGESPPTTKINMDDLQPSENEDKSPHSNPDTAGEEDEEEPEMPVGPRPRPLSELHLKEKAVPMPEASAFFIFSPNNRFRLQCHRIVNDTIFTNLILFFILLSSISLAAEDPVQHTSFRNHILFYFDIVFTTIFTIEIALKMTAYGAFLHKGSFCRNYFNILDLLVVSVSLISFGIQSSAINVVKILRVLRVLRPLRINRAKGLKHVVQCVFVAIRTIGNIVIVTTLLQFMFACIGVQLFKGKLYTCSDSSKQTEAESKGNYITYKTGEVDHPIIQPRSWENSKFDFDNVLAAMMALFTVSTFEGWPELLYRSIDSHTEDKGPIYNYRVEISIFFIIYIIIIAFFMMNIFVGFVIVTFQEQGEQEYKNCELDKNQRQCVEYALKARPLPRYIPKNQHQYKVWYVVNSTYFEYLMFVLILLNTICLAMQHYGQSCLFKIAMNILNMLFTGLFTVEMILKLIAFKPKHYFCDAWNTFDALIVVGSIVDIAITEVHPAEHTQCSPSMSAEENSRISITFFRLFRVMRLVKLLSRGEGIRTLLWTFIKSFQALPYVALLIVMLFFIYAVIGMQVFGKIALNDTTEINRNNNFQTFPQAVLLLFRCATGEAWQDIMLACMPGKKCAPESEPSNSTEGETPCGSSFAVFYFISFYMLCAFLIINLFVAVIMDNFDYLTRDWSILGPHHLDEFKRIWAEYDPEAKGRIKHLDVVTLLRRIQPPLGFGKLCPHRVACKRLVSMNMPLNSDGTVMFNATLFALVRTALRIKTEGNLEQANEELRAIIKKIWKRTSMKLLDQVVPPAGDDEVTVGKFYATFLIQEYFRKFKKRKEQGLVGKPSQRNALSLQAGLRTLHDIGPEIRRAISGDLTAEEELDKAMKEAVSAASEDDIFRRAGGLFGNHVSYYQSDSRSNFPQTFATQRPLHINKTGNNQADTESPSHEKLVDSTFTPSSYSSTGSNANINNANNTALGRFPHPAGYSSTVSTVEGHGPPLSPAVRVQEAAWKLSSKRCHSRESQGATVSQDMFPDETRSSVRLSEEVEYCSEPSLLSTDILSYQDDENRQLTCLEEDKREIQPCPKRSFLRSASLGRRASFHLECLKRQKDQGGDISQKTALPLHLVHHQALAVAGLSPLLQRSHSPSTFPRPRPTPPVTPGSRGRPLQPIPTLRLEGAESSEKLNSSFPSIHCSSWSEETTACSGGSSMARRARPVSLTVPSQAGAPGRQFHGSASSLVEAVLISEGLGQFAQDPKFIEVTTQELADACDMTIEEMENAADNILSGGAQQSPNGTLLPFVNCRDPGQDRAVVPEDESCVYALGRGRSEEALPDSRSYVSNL
Chain of Voltage-dependent L-type calcium channel subunit alpha-1C (phenylalkylamine site) (P22002 whole entry): as above
Chain of Amine oxidase [flavin-containing] A (MAO-A) (P21397 whole entry): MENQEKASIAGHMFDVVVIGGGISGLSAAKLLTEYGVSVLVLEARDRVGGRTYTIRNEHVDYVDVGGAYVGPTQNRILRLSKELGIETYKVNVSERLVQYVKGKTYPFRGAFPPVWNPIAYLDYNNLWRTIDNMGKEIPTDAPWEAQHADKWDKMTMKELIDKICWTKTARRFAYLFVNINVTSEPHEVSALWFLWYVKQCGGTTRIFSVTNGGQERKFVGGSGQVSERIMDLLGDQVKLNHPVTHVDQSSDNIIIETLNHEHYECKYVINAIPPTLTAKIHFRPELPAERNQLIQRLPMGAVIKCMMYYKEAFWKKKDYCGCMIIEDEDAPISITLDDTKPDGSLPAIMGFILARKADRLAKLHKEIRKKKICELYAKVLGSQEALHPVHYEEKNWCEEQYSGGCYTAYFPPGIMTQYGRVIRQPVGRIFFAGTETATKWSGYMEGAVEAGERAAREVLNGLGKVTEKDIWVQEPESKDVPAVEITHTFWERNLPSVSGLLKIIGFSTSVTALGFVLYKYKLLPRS
Chain of Acetylcholine receptor subunit alpha (Homo sapiens) (P02708 whole entry): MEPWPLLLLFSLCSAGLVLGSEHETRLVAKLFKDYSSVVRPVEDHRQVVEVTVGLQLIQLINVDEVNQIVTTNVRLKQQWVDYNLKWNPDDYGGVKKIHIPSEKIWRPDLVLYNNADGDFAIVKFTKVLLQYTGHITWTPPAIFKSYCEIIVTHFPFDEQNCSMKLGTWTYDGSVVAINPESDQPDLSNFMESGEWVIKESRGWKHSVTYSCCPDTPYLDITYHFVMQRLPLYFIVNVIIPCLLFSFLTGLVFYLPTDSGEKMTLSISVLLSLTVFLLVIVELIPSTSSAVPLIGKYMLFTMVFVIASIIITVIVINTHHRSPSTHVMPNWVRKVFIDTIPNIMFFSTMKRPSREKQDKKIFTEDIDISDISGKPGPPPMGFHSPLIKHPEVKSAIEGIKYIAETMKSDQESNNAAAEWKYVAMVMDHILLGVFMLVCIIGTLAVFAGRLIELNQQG
Chain of Sodium-dependent serotonin transporter (Homo sapiens) (P31645 whole entry, looked up): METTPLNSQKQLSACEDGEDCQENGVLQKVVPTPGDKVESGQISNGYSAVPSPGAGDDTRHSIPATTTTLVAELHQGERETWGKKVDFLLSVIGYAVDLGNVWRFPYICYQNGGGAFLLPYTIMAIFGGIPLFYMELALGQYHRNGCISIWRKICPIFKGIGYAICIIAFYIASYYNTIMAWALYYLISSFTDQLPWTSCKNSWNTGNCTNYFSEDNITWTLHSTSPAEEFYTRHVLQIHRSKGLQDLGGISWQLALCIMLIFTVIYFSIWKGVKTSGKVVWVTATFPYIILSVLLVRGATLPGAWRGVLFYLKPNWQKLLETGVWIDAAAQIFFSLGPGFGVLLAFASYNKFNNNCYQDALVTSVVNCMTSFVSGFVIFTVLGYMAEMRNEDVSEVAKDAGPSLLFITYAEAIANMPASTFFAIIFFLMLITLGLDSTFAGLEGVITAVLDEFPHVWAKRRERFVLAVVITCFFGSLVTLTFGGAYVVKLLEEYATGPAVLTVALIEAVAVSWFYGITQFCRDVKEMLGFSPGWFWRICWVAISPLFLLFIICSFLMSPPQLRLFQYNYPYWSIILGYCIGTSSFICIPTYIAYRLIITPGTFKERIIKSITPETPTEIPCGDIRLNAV
Chain of Alpha-1D adrenergic receptor (Homo sapiens) (P25100 whole entry): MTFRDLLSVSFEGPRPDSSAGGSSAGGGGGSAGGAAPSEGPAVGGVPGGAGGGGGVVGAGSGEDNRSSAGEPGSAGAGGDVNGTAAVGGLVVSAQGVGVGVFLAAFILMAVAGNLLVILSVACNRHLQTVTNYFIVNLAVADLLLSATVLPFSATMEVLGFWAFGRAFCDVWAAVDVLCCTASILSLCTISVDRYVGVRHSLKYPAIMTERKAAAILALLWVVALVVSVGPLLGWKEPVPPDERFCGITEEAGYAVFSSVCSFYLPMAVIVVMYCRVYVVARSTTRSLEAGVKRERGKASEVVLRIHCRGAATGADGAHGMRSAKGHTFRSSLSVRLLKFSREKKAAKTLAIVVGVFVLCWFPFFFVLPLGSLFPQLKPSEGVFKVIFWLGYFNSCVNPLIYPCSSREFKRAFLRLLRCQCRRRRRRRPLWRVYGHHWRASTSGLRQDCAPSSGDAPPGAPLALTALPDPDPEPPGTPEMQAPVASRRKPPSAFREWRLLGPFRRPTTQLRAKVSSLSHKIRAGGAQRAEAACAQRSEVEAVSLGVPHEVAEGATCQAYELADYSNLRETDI
Chain of 5-hydroxytryptamine receptor 1A (Homo sapiens) (P08908 whole entry): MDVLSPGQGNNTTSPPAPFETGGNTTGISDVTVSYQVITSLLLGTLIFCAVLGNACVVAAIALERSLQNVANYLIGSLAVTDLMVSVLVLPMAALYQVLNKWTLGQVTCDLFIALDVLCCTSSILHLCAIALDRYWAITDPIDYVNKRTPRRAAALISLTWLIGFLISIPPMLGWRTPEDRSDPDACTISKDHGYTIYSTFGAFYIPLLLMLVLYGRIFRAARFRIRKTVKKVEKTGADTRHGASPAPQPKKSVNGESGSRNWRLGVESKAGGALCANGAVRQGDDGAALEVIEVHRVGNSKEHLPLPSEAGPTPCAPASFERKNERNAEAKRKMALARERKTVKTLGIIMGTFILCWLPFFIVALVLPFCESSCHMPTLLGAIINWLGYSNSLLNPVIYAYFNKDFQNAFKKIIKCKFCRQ
Chain of Sigma non-opioid intracellular receptor 1 (Homo sapiens) (Q99720 whole entry): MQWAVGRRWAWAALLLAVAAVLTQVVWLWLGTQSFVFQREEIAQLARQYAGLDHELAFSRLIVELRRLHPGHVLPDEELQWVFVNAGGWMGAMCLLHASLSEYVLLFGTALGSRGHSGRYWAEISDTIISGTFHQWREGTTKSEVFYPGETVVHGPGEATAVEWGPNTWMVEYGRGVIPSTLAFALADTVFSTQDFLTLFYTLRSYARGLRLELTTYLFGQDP

For `C[C@H](NC(=O)c1cnc2n1[C@](C)(Cc1ccc(C#N)cc1)C(=O)N2c1cc(Cl)c(F)c(Cl)c1)C(=O)NC1(c2ccccn2)CC1` [BI 1950], the activity at 0.03 µM ([1]; compound concentration 0.03 uM) was 97% (not active), the activity at 0.1 µM ([1]; compound concentration 0.1 uM) was 98% (not active) and the activity at 0.3 µM ([1]; compound concentration 0.3 uM) was 94% (not active). The activity at 1 µM ([1]; compound concentration 1 uM) was 81% (not active), the activity at 3 µM ([1]; compound concentration 3 uM) was 58% (not active) and the activity at 10 µM ([1]; compound concentration 10 uM) was 28%. The residual activity [2] was 78%, the activity at 10 µM [3] was 107% (not active) and the inhibition [4] was -9.74%. It also gave a residual activity [5] of 115%, a residual activity [6] of 102% and an inhibition [7] of 12.4%. The activity at 0.03 µM ([8]; compound concentration 0.03 uM) was 109% (not active), the activity at 0.1 µM ([8]; compound concentration 0.1 uM) was 110% (not active) and the activity at 0.3 µM ([8]; compound concentration 0.3 uM) was 102% (not active). The activity at 1 µM ([8]; compound concentration 1 uM) was 86% (not active), the activity at 3 µM ([8]; compound concentration 3 uM) was 76% (not active) and the activity at 10 µM ([8]; compound concentration 10 uM) was 49.5%. The residual activity [9] was 112%, the activity at 10 µM [10] was 101% (not active) and the residual activity [11] was 119%. It also gave a residual activity [12] of 109%, an inhibition [13] of -6.44% and a residual activity [14] of 86%. For the same molecule, the inhibition [15] was -2.81% and the residual activity [16] was 99%.

`C[C@@]1(Cc2ccc(C#N)cc2)C(=O)N(c2cc(Cl)cc(Cl)c2)c2ncc(C(=O)NC3(c4nc(C5CCC5)no4)CC3)n21` [BI 9446] showed an inhibition [17] of 8.28% and an inhibition [18] of 12.1%.

From ChEMBL document CHEMBL4507282, “Data for DCP probe BI-1950” (2021)
